In test [1] the test system is NCI-H358 (K-Ras G12C). Put plainly: CellTiter-Glo cell viability assay, NCI-H358. It is filed as cell-based, human. As to conditions: Homo sapiens, NCI-H358, 120 h, NCI-H358, 5-day treatment; class symbols; read-out: Additional H358 Cell Viability assay data (K-Ras G12C, IC50). Summed up:
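Luminescent viability readout on day 5 after direct compound addition to plated cells; plates sat ~30 min at room temperature before reading. Values expressed as percent of mean DMSO signal, curves fit with a four-parameter logistic model.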
(In ATP-based viability assays light output follows the ATP content of the culture.)

Test [2] has as its system NCI-H358 cells (K-Ras G12C). The experiment in a line: Potency assay: pERK in NCI-H358 cells. The test is classed as cell-based, human. As to conditions: Homo sapiens, NCI-H358; H358 KRAS G12C; read-out: pERK EC50. In outline: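 Compounds are dosed as ten 3-fold dilutions from a 10 mM DMSO stock, in duplicate, and left on cells for 4 h at 37 °C, 5% CO2. Phospho-ERK1/2 is then quantified by AlphaLISA SureFire Ultra or In-Cell Western, and IC50 is derived from a 4-parameter sigmoid against log concentration.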

Test [3] deals with KRAS WT (Homo sapiens (Human), UniProt P01116+P62937). Put plainly: Ras-Raf (BRAF RBD) disruption / FRET / MOA assay, KRAS WT. It is filed as biochemical. As to conditions: read-out: IC50* KRAS WT FRET data. In outline:
(§1)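 Ternary complex formation (Ras–compound–cyclophilin A) displacing BRAF RBD, monitored by TR-FRET. Three hours at 25° C with compound (top 30 μM final), then 1.5 h with the labelled antibodies. Lower ratio than DMSO indicates disruption; IC50 reported.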

The target in test [4] is K-Ras G13C (Homo sapiens (Human), UniProt P01116+P62937, G13C). Put plainly: Ras-Raf (BRAF RBD) disruption / FRET / MOA assay, KRAS G13C. It is filed as biochemical. As to conditions: KRAS G13C; Ras-Raf disruption/FRET/MOA assay; read-out: IC50* KRAS G13C FRET data. In outline:
as §1

Test [5] concerns the target NRAS Q61R (Homo sapiens (Human), UniProt P01111+P62937, Q61R). The experiment in a line: Ras-Raf (BRAF RBD) disruption / FRET / MOA assay, NRAS Q61R. It is filed as biochemical. As to conditions: NRAS Q61R; Ras-Raf disruption/FRET/MOA assay; read-out: IC50* NRAS Q61R FRET data. In outline: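 Compounds were tested as a 10-point 3-fold dilution series from 30 μM final for their ability to drive ternary complex formation between nucleotide-loaded Ras and cyclophilin A, displacing the BRAF RBD. After 3 h at 25° C., anti-His Eu-W1024 (10 nM) and anti-GST allophycocyanin (50 nM) were added for 1.5 h. A TR-FRET ratio decrease versus DMSO gave IC50.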

The term IC50 denotes the midpoint of a concentration-inhibition curve. As a reminder, the EC50 is the midpoint of the concentration-response curve.

Bounds are passed on as bounds.

Sequence of K-Ras G13C (P01116-2 other isoform, or with tags, fused parts or gaps G13C): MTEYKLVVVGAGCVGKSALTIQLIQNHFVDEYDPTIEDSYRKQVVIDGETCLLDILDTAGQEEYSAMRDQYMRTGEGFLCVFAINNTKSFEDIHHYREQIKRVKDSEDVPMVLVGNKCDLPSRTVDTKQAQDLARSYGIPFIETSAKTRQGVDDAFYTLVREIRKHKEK
Sequence of K-Ras G13C (P62937 whole entry): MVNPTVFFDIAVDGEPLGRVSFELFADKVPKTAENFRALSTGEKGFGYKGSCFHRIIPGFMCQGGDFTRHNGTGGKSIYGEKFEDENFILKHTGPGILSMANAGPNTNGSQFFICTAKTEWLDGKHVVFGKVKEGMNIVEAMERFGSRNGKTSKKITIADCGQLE
Sequence of KRAS WT (P01116-2 other isoform, or with tags, fused parts or gaps): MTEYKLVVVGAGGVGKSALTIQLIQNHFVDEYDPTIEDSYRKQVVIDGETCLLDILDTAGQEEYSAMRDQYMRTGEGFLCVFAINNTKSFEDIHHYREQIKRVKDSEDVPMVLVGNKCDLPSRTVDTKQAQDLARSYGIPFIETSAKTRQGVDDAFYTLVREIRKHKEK
Sequence of KRAS WT (P62937 whole entry): as the sequence (P62937 whole entry) above
Sequence of NRAS Q61R (P01111 whole entry Q61R): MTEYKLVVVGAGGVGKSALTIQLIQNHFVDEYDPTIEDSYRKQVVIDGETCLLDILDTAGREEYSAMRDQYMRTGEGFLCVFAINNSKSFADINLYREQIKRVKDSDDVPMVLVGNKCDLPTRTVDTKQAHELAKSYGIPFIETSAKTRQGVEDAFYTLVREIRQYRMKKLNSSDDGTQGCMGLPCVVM
Sequence of NRAS Q61R (P62937 whole entry): as the sequence (P62937 whole entry) above

On to `CO[C@@H](C)c1ncccc1-c1c2c3cc(ccc3n1CC(F)(F)F)-c1csc(n1)C[C@H](NC(=O)[C@H](C(C)C)N(C)C(=O)N1CCC3(CC1)CN(C(=O)/C=C/CF)C3)C(=O)N1CCC[C@H](N1)C(=O)OCC(C)(C)C2` (atropisomer, axis not shown) [Example A602], for which the IC50 is less than 10 nM in test [1], 10 to 100 nM in test [3], 10 to 100 nM in test [4] and 10 to 100 nM in test [5]. The EC50 in test [2] is less than 5000 nM.
As for `C=CC(=O)N1CCOC2(CCN(C(=O)N(C)[C@H](C(=O)N[C@H]3Cc4nc(n(C)n4)-c4ccc5c(c4)c(c(-c4cccnc4[C@H](C)OC)n5CC(F)(F)F)CC(C)(C)COC(=O)[C@@H]4CCCN(N4)C3=O)C(C)C)CC2)C1` (atropisomer, axis not shown) [Example A606], the concentration for half-maximal inhibition (IC50) lay within 100 to 1000 nM in test [1], 100 to 1000 nM in test [3], 10 to 100 nM in test [4] and 100 to 1000 nM in test [5]. The concentration giving a half-maximal response (EC50) in test [2] is less than 5000 nM.
As to `C=CC(=O)N1CC2(C1)OCCN2C(=O)N(C)[C@H](C(=O)N[C@H]1Cc2nc(cs2)-c2ccc3c(c2)c(c(-c2cccnc2[C@H](C)OC)n3CC)CC(C)(C)COC(=O)[C@@H]2CCCN(N2)C1=O)C(C)C` (atropisomer, axis not shown) [Example A620], the IC50 in test [1] was less than 10 nM; in test [3], 100 to 1000 nM; in test [4], 100 to 1000 nM; in test [5] it was 100 to 1000 nM. The EC50 in test [2] was less than 5000 nM.
As to `CCn1c(-c2cccnc2[C@H](C)OC)c2c3cc(ccc31)-c1cccc(n1)C[C@H](NC(=O)[C@H](C(C)C)N(C)C(=O)N1CCC13CN(C(=O)C#CC(C)(C)N(C)C)C3)C(=O)N1CCC[C@H](N1)C(=O)OCC(C)(C)C2` (atropisomer, axis not shown) [Example A623], the IC50 lay in the range of 10 to 100 nM in test [1], 1000 to 10000 nM in test [3], 1000 to 10000 nM in test [4] and 1000 to 10000 nM in test [5]. For the same compound, in test [2], the EC50 was less than 5000 nM.
Consider `CCn1c(-c2cccnc2[C@H](C)OC)c2c3cc(ccc31)-c1csc(n1)C[C@H](NC(=O)C[C@H](C)OC1CN(C(=O)C#CC(C)(C)N(C)C)C1)C(=O)N1CCC[C@H](N1)C(=O)OCC(C)(C)C2` (atropisomer, axis not shown) [Example A637], for which the concentration for half-maximal inhibition (IC50) is 10 to 100 nM in test [1], 1000 to 10000 nM in test [3], 1000 to 10000 nM in test [4] and more than 10000 nM in test [5]. Also, in test [2], the 50% effective concentration (EC50) is less than 5000 nM.
On to `CO[C@@H](C)c1ncccc1-c1c2c3cc(ccc3n1CC(F)(F)F)N1CCO[C@@H](C[C@H](NC(=O)[C@H](C(C)C)N3CC[C@]4(CCN(C(=O)C#CC(C)(C)N(C)C)C4)C3=O)C(=O)N3CCC[C@H](N3)C(=O)OCC(C)(C)C2)C1` (atropisomer, axis not shown) [Example A642], for which the IC50 in test [1] was less than 10 nM; in test [3], 1000 to 10000 nM; in test [4] it was 100 to 1000 nM; in test [5], more than 10000 nM. In test [2], the EC50 was less than 5000 nM.
On the same counts, the results for `CCn1c(-c2cccnc2[C@H](C)OC)c2c3cc(ccc31)N1CCO[C@@H](C[C@H](NC(=O)[C@H](C(C)C)N(C)C(=O)C3(F)CCN(C(=O)C#CC(C)(C)N(C)C)CC3)C(=O)N3CCC[C@H](N3)C(=O)OCC(C)(C)C2)C1` (atropisomer, axis not shown) [Example A647, 1-(4-(dimethylamino)-4-methylpent-2-ynoyl)-N-((2S)-1-(((2^2S,6^3S,4S)-1^1-ethyl-1^2-(2-((S)-1-methoxyethyl)pyridin-3-yl)-10,10-dimethyl-5,7-dioxo-6^1,6^2,6^3,6^4,6^5,6^6-hexahydro-1^1H-8-oxa-2(4,2)-morpholina-1(5,3)-indola-6(1,3)-pyridazinacycloundecaphane-4-yl)amino)-3-methyl-1-oxobutan-2-yl)-4-fluoro-N-methylpiperidine-4-carboxamide] are less than 10 nM, 100 to 1000 nM, 100 to 1000 nM, 1000 to 10000 nM and less than 5000 nM.
Turning to `C=CC(=O)N1CC[C@]2(C1)OCN([C@H](C(=O)N[C@H]1Cc3cccc(n3)-c3ccc4c(c3)c(c(-c3cccnc3[C@H](C)OC)n4CC)CC(C)(C)COC(=O)[C@@H]3CCCN(N3)C1=O)C(C)C)C2=O` (atropisomer, axis not shown) [Example A652], the IC50 in test [1] is 100 to 1000 nM; in test [3], 1000 to 10000 nM; in test [4] it was 100 to 1000 nM; in test [5] it was 1000 to 10000 nM. Further, in test [2], the EC50 was less than 5000 nM.
For the compound `CCn1c(-c2cccnc2[C@H](C)OC)c2c3cc(ccc31)-c1cc(CF)cc(c1)C[C@H](NC(=O)[C@H](C(C)C)N(C)C(=O)[C@H]1CCN(C(=O)C#CC(C)(C)N(C)C)C1)C(=O)N1CCC[C@H](N1)C(=O)OCC(C)(C)C2` (atropisomer, axis not shown) [Example A658], the 50% inhibitory concentration (IC50) in test [1] is less than 10 nM; in test [3], 1000 to 10000 nM; in test [4] it was 100 to 1000 nM; in test [5], 1000 to 10000 nM. In addition, the EC50 in test [2] was less than 5000 nM.
As for `C=CC(=O)N1CC2(CCCN2C(=O)N(C)[C@H](C(=O)N[C@H]2Cc3nc(cs3)-c3ccc4c(c3)c(c(-c3cccnc3[C@H](C)OC)n4CC)CC(C)(C)COC(=O)[C@@H]3CCCN(N3)C2=O)C(C)C)C1` (atropisomer, axis not shown) [Example A667], the 50% inhibitory concentration (IC50) in test [1] was less than 10 nM; in test [3], 10 to 100 nM; in test [4], 100 to 1000 nM; in test [5], 10 to 100 nM. In addition, the EC50 in test [2] was less than 5000 nM.
Regarding `CCn1c(-c2cccnc2[C@H](C)OC)c2c3cc(ccc31)-c1cc(CF)cc(c1)C[C@H](NC(=O)[C@H](C(C)C)N1CC[C@]3(CCN(C(=O)C#CC(C)(C)N(C)C)C3)C1=O)C(=O)N1CCC[C@H](N1)C(=O)OCC(C)(C)C2` (atropisomer, axis not shown) [Example A673], the concentration for half-maximal inhibition (IC50) in test [1] was less than 10 nM; in test [3] it was 1000 to 10000 nM; in test [4] it was 100 to 1000 nM; in test [5], 1000 to 10000 nM. Also, in test [2], the EC50 was less than 5000 nM.
In the case of `CCn1c(-c2cccnc2[C@H](C)OC)c2c3cc(ccc31)-c1cccc(c1)C[C@H](NC(=O)[C@H](C(C)C)N(C)C(=O)C1(F)CCN(C(=O)/C=C/CN(C)C)CC1)C(=O)N1CCC[C@H](N1)C(=O)OCC(C)(C)C2` (atropisomer, axis not shown) [Example A685], the IC50 in test [1] was less than 10 nM; in test [3], 100 to 1000 nM; in test [4], 100 to 1000 nM; in test [5], 100 to 1000 nM. In addition, the EC50 in test [2] was less than 5000 nM.
As for `CO[C@@H](C)c1ncccc1-c1c2c3cc(ccc3n1CC(F)(F)F)-c1cccc(c1)C[C@H](NC(=O)[C@H](C(C)C)N1CC[C@]3(CCN(C(=O)C#CC(C)(C)N(C)C)C3)C1=O)C(=O)N1CCC[C@H](N1)C(=O)OCC(C)(C)C2` (atropisomer, axis not shown) [Example A689], the IC50 in test [1] is less than 10 nM; in test [3], 1000 to 10000 nM; in test [4], 100 to 1000 nM; in test [5] it was 1000 to 10000 nM. Moreover, the EC50 in test [2] is less than 5000 nM.
As for `CCn1c(-c2cccnc2[C@H](C)OC)c2c3cc(ccc31)-c1csc(n1)C[C@H](NC(=O)[C@H](C(C)C)N(C)C(=O)N(C)C1CN(C(=O)/C=C/C3CN(C)C3)C1)C(=O)N1CCC[C@H](N1)C(=O)OCC(C)(C)C2` (atropisomer, axis not shown) [Example A690], the IC50 in test [1], in test [3], in test [4] and in test [5] was 100 to 1000 nM throughout. For the same compound, the EC50 in test [2] was less than 5000 nM.
With `CO[C@@H](C)c1ncccc1-c1c2c3cc(ccc3n1CC(F)(F)F)-c1cccc(c1)C[C@H](NC(=O)[C@@H](COC1CN(C(=O)C#CC3(C)OCCO3)C1)C(C)C)C(=O)N1CCC[C@H](N1)C(=O)OCC(C)(C)C2` (atropisomer, axis not shown) [Example A703], the IC50 in test [1] was 10 to 100 nM; in test [3], 1000 to 10000 nM; in test [4], 1000 to 10000 nM; in test [5] it was more than 10000 nM. Moreover, in test [2], the concentration giving a half-maximal response (EC50) is less than 5000 nM.
In the case of `C=CC(=O)N1CC(N(C)C(=O)N(C)[C@H](C(=O)N[C@H]2Cc3nc(cs3)-c3ccc4c(c3)c(c(-c3cccnc3[C@H](C)OC)n4CC(F)(F)F)CC(C)(C)COC(=O)[C@@H]3CCCN(N3)C2=O)C(C)C)C1` (atropisomer, axis not shown) [Example A711], the IC50 in test [1] was less than 10 nM; in test [3], 10 to 100 nM; in test [4], 10 to 100 nM; in test [5], 100 to 1000 nM. Moreover, the 50% effective concentration (EC50) in test [2] is less than 5000 nM.
On to `CCn1c(-c2cccnc2[C@H](C)OC)c2c3cc(ccc31)-c1csc(n1)C[C@H](NC(=O)[C@@H](COC1CN(C(=O)C#CC(C)(C)N(C)C)C1)C(C)C)C(=O)N1CCC[C@H](N1)C(=O)OCC(C)(C)C2` (atropisomer, axis not shown) [Example A721], for which the IC50 in test [1] is less than 10 nM; in test [3], more than 10000 nM; in test [4] it was 1000 to 10000 nM; in test [5] it was more than 10000 nM. Besides, the 50% effective concentration (EC50) in test [2] was less than 5000 nM.
